Drawing on patent publication US11447466B2, “Substituted indole compounds useful as inhibitors of TLR7/8/9” (BRISTOL-MYERS SQUIBB COMPANY, priority 2017, dated 2022), this text covers IC50 for 12 molecules.

What all share (type): cell-based
In assay [1] the target is T1, human TLR9 (Homo sapiens, UniProt Q9NR96).
T1 construct: host or cells: HEK-Blue cells
T1 sequence (Q9NR96 26-1032): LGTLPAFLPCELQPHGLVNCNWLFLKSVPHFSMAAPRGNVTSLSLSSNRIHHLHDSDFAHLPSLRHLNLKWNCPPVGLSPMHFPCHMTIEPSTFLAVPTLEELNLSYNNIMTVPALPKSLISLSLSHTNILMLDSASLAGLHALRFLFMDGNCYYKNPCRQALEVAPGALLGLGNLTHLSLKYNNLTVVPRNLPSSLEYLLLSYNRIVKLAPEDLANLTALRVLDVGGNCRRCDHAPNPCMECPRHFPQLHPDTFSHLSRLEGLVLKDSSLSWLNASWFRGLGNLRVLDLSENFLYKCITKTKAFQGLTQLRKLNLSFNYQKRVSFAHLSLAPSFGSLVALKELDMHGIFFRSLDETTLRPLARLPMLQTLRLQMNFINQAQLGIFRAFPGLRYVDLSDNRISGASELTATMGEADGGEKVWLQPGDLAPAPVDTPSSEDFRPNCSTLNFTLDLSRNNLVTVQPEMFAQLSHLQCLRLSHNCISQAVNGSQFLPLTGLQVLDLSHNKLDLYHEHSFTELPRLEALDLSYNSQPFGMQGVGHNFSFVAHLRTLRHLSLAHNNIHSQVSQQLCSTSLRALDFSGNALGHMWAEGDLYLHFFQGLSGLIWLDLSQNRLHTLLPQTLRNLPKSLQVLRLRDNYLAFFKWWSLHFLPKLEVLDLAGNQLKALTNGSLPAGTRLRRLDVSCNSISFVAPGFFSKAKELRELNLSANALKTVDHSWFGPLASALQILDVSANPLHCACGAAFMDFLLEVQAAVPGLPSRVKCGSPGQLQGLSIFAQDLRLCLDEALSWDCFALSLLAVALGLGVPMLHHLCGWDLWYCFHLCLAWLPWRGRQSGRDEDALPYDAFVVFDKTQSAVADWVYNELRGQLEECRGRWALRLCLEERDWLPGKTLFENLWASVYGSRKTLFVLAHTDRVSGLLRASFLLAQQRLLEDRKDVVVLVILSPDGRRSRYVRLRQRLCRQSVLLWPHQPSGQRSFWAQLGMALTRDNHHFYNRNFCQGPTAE
Kind of assay: TLR9 inhibition reporter assay (HEK-Blue SEAP reporter, ODN2006 stimulation). The note with it: HEK-Blue cells overexpressing human TLR9, SEAP reporter, ODN2006 5 nM, 22 hour incubation. In outline: (§1)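 Screening used HEK-Blue cells overexpressing one human TLR (7, 8 or 9) and an IFN-β minimal promoter–NF-κB/AP-1 SEAP construct. Stimulation lasted 22 h at 37 °C with receptor-specific agonist: gardiquimod, R848 or ODN2006 at 7.5 μM, 15.9 μM and 5 nM.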
A general note: A reporter such as luciferase makes a cellular process visible.

The target in assay [2] is T2, human TLR7 (Homo sapiens, UniProt Q9NYK1).
T2 construct: host or cells: HEK-Blue cells
T2 sequence (Q9NYK1 27-1049): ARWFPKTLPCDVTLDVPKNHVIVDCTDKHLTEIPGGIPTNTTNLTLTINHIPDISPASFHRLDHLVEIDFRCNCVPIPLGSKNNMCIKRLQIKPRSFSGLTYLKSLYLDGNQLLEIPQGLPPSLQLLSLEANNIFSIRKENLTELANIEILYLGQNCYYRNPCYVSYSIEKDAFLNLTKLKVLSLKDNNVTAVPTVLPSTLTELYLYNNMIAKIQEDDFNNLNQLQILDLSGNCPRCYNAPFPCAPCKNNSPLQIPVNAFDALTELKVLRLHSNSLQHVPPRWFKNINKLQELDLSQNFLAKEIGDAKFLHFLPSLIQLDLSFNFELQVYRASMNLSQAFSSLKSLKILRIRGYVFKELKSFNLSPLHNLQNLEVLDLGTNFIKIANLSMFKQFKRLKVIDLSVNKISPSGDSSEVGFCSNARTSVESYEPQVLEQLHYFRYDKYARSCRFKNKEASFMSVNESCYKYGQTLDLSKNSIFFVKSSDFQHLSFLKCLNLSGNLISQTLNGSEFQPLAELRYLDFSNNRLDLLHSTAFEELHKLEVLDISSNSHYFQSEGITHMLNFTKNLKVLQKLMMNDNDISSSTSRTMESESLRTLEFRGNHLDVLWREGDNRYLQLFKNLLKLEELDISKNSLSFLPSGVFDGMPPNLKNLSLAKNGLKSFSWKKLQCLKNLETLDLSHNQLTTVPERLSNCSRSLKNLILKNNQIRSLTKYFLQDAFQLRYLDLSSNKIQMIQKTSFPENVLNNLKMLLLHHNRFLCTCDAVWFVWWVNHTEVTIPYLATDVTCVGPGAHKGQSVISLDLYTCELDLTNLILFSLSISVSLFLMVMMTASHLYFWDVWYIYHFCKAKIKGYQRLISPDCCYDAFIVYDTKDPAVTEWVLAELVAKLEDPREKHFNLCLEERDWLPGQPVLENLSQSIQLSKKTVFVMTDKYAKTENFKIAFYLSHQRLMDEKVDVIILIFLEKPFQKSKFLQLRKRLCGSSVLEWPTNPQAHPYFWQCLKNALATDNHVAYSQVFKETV
Kind of assay: TLR7 inhibition reporter assay (HEK-Blue SEAP reporter, gardiquimod stimulation). The note with it: HEK-Blue cells overexpressing human TLR7, SEAP reporter, gardiquimod 7.5 μM, 22 hour incubation. In outline:
as §1

Assay [3] deals with T3, human TLR8 (Homo sapiens, UniProt Q9NR97).
T3 construct: host or cells: HEK-Blue cells
T3 sequence (Q9NR97 27-1041): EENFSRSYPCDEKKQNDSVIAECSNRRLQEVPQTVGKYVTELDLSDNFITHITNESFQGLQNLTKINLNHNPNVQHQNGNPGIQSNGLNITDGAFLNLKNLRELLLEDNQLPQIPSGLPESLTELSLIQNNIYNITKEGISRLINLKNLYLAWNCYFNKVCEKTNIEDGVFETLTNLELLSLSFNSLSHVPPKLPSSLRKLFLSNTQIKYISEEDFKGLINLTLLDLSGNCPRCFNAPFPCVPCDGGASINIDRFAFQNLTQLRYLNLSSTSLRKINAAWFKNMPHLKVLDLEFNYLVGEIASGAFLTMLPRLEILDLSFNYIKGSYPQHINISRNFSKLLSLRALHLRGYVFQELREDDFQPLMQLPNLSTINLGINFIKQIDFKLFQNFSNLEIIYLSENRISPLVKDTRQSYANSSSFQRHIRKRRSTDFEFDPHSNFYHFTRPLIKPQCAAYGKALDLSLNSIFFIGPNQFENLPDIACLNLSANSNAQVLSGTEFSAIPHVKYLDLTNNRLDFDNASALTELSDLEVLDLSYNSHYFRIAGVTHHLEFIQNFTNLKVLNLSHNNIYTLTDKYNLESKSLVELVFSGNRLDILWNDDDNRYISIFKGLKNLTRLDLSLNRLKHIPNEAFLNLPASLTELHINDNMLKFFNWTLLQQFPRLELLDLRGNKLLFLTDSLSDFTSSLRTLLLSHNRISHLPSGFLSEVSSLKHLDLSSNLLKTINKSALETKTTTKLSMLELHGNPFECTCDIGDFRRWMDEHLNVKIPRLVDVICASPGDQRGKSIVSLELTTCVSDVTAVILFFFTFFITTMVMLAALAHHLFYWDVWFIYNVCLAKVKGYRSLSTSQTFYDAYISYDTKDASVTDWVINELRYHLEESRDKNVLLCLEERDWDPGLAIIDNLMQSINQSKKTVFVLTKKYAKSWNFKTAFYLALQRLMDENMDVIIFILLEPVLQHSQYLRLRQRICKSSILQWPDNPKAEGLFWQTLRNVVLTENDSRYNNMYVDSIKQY
Nature of the assay: TLR8 inhibition reporter assay (HEK-Blue SEAP reporter, R848 stimulation). The note with it: HEK-Blue cells overexpressing human TLR8, SEAP reporter, R848 15.9 μM, 22 hour incubation. In outline:
as §1

For orientation: IC50 means the concentration that gives 50% inhibition. The low end stands for greater potency in that assay, the high end for weaker potency in that assay. `CC(C)c1c(-c2cc(-c3ccccc3)c(=O)n(C)c2)[nH]c2ccc(C3CCN(CC(=O)N(C)C)CC3)cc12` [Example 170, 2-(4-(3-isopropyl-2-(1-methyl-6-oxo-5-phenyl-1,6-dihydropyridin-3-yl)-1H-indol-5-yl)piperidin-1-yl)-N,N-dimethylacetamide]: the IC50 in assay [1] came to 2080 nM; in assay [2] it was 19.8 nM; in assay [3] it was 14.4 nM.
Turning to `CNC(=O)CN1CCC(c2ccc3[nH]c(-c4nn(C)c(=O)c(C)c4C)c(C(C)C)c3c2)CC1` [Example 131, 2-(4-(3-isopropyl-2-(1,4,5-trimethyl-6-oxo-1,6-dihydropyridazin-3-yl)-1H-indol-5-yl)piperidin-1-yl)-N-methylacetamide], the IC50 in assay [1] is 16200 nM; in assay [2], 245 nM; in assay [3], 33.4 nM.
The like results for `Cc1cc(-c2[nH]c3ccc(C4CCNCC4)cc3c2C(C)C)cn(Cc2ccccc2)c1=O` [Example 46, 1-benzyl-5-(3-isopropyl-5-(piperidin-4-yl)-1H-indol-2-yl)-3-methylpyridin-2(1H)-one] were, in that order, 919 nM, 2.9 nM and 29.9 nM.
The like results for `Cc1cc(-c2[nH]c3ccc(C4CCN(C5CCC(C(F)(F)F)CC5)CC4)cc3c2C(C)C)cn(C)c1=O` (stereo not drawn) [Example 230, 5-(3-isopropyl-5-(1-(4-(trifluoromethyl)cyclohexyl)piperidin-4-yl)-1H-indol-2-yl)-1,3-dimethylpyridin-2(1H)-one] were, in that order, 5510 nM, 11.2 nM and 23.1 nM.
`Cc1c(-c2[nH]c3ccc(C4CCN(C5COC5)CC4)cc3c2C(C)C)cn(C)c(=O)c1C` [Example 207, 5-(3-isopropyl-5-(1-(oxetan-3-yl)piperidin-4-yl)-1H-indol-2-yl)-1,3,4-trimethylpyridin-2(1H)-one]: the IC50 was 46800 nM in assay [1], 20.8 nM in assay [2] and 11.7 nM in assay [3].
For the molecule `Cc1c(-c2[nH]c3ccc(C4CCN(C)CC4)cc3c2C(C)C)cn(C)c(=O)c1Cl` [Example 240, 3-chloro-5-(3-isopropyl-5-(1-methylpiperidin-4-yl)-1H-indol-2-yl)-1,4-dimethylpyridin-2(1H)-one], the figures for the IC50 in assay [1], in assay [2] and in assay [3] were 2590 nM, 1 nM and 3.7 nM, respectively.
For `CC(C)c1c(-c2ccc(=O)n(C)c2)[nH]c2ccc(C3CCN(C4COC4)CC3)cc12` [Example 179, 5-(3-isopropyl-5-(1-(oxetan-3-yl)piperidin-4-yl)-1H-indol-2-yl)-1-methylpyridin-2(1H)-one], in that order: 3930 nM, 95.1 nM and 28.8 nM.
For `Cc1c(-c2[nH]c3ccc(C4CCN(CC(=O)N(C)C)CC4)cc3c2C(C)C)cn(C)c(=O)c1C#N` [Example 147, 2-(4-(2-(5-cyano-1,4-dimethyl-6-oxo-1,6-dihydropyridin-3-yl)-3-isopropyl-1H-indol-5-yl)piperidin-1-yl)-N,N-dimethylacetamide], in that order: 5020 nM, 56.3 nM and 4.8 nM.
For `Cc1c(-c2[nH]c3ccc(C4CCN(C5CCOCC5)CC4)cc3c2C(C)C)cc(C#N)c(=O)n1C` [Example 220, 5-(3-isopropyl-5-(1-(tetrahydro-2H-pyran-4-yl)piperidin-4-yl)-1H-indol-2-yl)-1,6-dimethyl-2-oxo-1,2-dihydropyridine-3-carbonitrile], in that order: 2780 nM, 24.5 nM and 1.4 nM.
Consider `Cc1cc(-c2[nH]c3ccc(C4CCN(C5CCCOC5)CC4)cc3c2C(C)C)nn(C)c1=O` (stereo not drawn) [Example 188, 6-(3-isopropyl-5-(1-(tetrahydro-2H-pyran-3-yl)piperidin-4-yl)-1H-indol-2-yl)-2,4-dimethylpyridazin-3(2H)-one], for which the IC50 in assay [1] stood at 526 nM; in assay [2], 14.1 nM; in assay [3], 11.1 nM.
Regarding `Cc1cc(-c2[nH]c3ccc(C4CCN(Cc5cc(OC(F)F)ccc5F)CC4)cc3c2C(C)C)cn(C)c1=O` [Example 78, 5-(5-(1-(5-(difluoromethoxy)-2-fluorobenzyl)piperidin-4-yl)-3-isopropyl-1H-indol-2-yl)-1,3-dimethylpyridin-2(1H)-one], the IC50 turned out to be 34800 nM in assay [1], 67.6 nM in assay [2] and 64 nM in assay [3].
As to `Cc1cc(-c2[nH]c3ccc(C4CCN(C5CC(C)OC5=O)CC4)cc3c2C(C)C)cn(C)c1=O` (stereo not drawn) [Example 149, 5-(3-isopropyl-5-(1-(5-methyl-2-oxotetrahydrofuran-3-yl)piperidin-4-yl)-1H-indol-2-yl)-1,3-dimethylpyridin-2(1H)-one], the concentration for half-maximal inhibition (IC50) in assay [1] turned out to be 23200 nM; in assay [2] it was 16 nM; in assay [3], 27.3 nM.
